Data reported in PubChem BioAssay (NCI).
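96-well plates; 48 h exposure; 5 concentrations. Endpoints by linear interpolation between flanking doses. Not reached: highest tested concentration assigned. TGI is the concentration that stops growth completely.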

Assays:
Experiment in all cases: NCI-60 cell line screen, 48 h
RXF 393 renal = tested on: RXF 393 renal
NCI-H226 lung = tested on: NCI-H226 lung
HT29 colon = tested on: HT29 colon
HCC-2998 colon = tested on: HCC-2998 colon
CCRF-CEM leukemia = tested on: CCRF-CEM leukemia
DU-145 prostate = tested on: DU-145 prostate
K-562 leukemia = tested on: K-562 leukemia
SF-295 CNS = tested on: SF-295 CNS
SW-620 colon = tested on: SW-620 colon
OVCAR-5 ovarian = tested on: OVCAR-5 ovarian
A498 renal = tested on: A498 renal
U251 CNS = tested on: U251 CNS
CAKI-1 renal = tested on: CAKI-1 renal
OVCAR-3 ovarian = tested on: OVCAR-3 ovarian
UACC-257 melanoma = tested on: UACC-257 melanoma
M14 melanoma = tested on: M14 melanoma
SF-539 CNS = tested on: SF-539 CNS
HOP-92 NSCLC = tested on: HOP-92 NSCLC

SMILES | TGI (RXF 393 renal) [µM] | TGI (NCI-H226 lung) [µM] | TGI (HT29 colon) [µM] | TGI (HCC-2998 colon) [µM] | TGI (CCRF-CEM leukemia) [µM] | TGI (DU-145 prostate) [µM] | TGI (K-562 leukemia) [µM] | TGI (SF-295 CNS) [µM] | TGI (SW-620 colon) [µM] | TGI (OVCAR-5 ovarian) [µM] | TGI (A498 renal) [µM] | TGI (U251 CNS) [µM] | TGI (CAKI-1 renal) [µM] | TGI (OVCAR-3 ovarian) [µM] | TGI (UACC-257 melanoma) [µM] | TGI (M14 melanoma) [µM] | TGI (SF-539 CNS) [µM] | TGI (HOP-92 NSCLC) [µM]
O=CC1OC(=O)c2cc(O)c(O)c(O)c2-c2c(cc(O)c(O)c2O)C(=O)OC1C(O)C(O)CO (stereo not given) | > 100 | > 100 | 46.8 | > 100 | 85.5 | > 100 | 44.2 | 67.9 | 32.9 | > 100 | > 100 | 32.3 | 35.9 | > 100 | > 100 | > 100 | > 100 | > 100
O=C(OCC1CCCN2CCCCC12)c1ccncc1 (stereo not given) | > 100 | > 100 | > 100 | > 100 | > 100 | > 100 | > 100 | > 100 | > 100 | > 100 | > 100 | > 100 | > 100 | > 100 | > 100 | > 100 | > 100 | > 100
Nc1nc(N)c2nnn(C[C@H]3CC[C@@H](CO)C3)c2n1 | > 100 | > 100 | > 100 | > 100 | > 100 | > 100 | > 100 | > 100 | > 100 | > 100 | > 100 | > 100 | > 100 | > 100 | > 100 | > 100 | > 100 | > 100
COc1cc(C2SCC(=O)N2c2ccc(Cl)cc2)cc(I)c1O (stereo not given) | > 100 | > 100 | > 100 | > 100 | > 100 | > 100 | > 100 | > 100 | > 100 | > 100 | > 23.2 | > 100 | > 100 | > 100 | > 100 | > 100 | > 100 | > 100
Nn1c(SCC(=O)NCc2ccccc2)nc2ccccc2c1=O | > 100 | > 100 | > 100 | > 100 | > 100 | > 100 | > 100 | > 100 | > 100 | > 100 | > 100 | > 100 | > 100 | > 100 | > 100 | > 100 | > 100 | > 100
O[C@H]1[C@H](O)[C@H](O)CN2CCC[C@@H](O)[C@H]12 | > 100 | > 100 | > 100 | > 100 | > 100 | > 100 | > 100 | > 100 | > 100 | > 100 | > 100 | > 100 | > 100 | > 100 | > 100 | > 100 | > 100 | > 100
O=C1OC[C@@H]2Cc3c([nH]c4ccccc34)[C@@H](c3cc(O)c(O)c(O)c3)N12 | 45.6 | 49.9 | > 100 | > 100 | 54.3 | > 100 | 58.7 | 34 | 53.4 | 46.2 | 48 | 59.8 | > 100 | – | 9.73 | 36.7 | 37.9 | > 100
N#CC(N=Nc1ccccc1)c1nc2ccccc2o1 (stereo not given) | 61.4 | > 100 | > 100 | > 100 | > 100 | 72.4 | > 100 | 35.5 | – | > 100 | > 100 | 59.5 | > 100 | 92.7 | > 100 | > 100 | 28.8 | 46.7
Cc1ccc(S(=O)(=O)/N=C(\[O-])C2=C(c3ccccc3)NN(C)c3nc4cccc[n+]4nc32)cc1 | > 100 | > 100 | > 100 | > 100 | > 100 | > 100 | > 100 | – | > 100 | > 100 | > 100 | > 100 | > 100 | – | > 100 | > 100 | > 100 | 81.9
Cc1ccc(Nc2nc(=O)[nH]c(=O)[nH]2)cc1N=[N+]=[N-] | > 100 | > 100 | > 100 | > 100 | > 100 | > 100 | > 100 | > 100 | > 100 | > 100 | > 100 | – | > 100 | > 100 | > 100 | > 100 | > 100 | > 100
